Patent publication US8383629B2, “Inhibitors of 11β-hydroxysteroid dehydrogenase type 1” (Vitae Pharmaceuticals, Inc., priority 2008, dated 2013)
pIC50: −log10 of the molar value.

Target: T1, human 11β-HSD1 (Homo sapiens, UniProt P28845)
T1 construct: expressed in transfected cells; host or cells: CHO cells (microsomes)
Assay: Inhibition of microsomal preparation of 11β-HSD1 (SPA, Biological Test Example 1)
Format: biochemical
Settings: for inhibition at 0.111 µM: 111 nM; for pIC50: microsomes from CHO cells overexpressing human 11β-HSD1, read-out: IC50 Range; for inhibition at 0.1 µM: 100 nM
Description: The inhibition of microsomal preparation of 11β-HSD1 by compounds of the invention was measured essentially as previously described (K. Solly, S. S. Mundt, H. J. Zokian, G. J. Ding, A. Hermanowski-Vosatka, B. Strulovici, and W. Zheng, High-Throughput Screening of 11-Beta-Hydroxysteroid Dehydrogenase Type 1 in Scintillation Proximity Assay Format. Assay Drug Dev Technol 3 (2005) 377-384). All reactions were carried out at rt in 96 well clear flexible PET Microbeta plates (PerkinElmer). The assay begins by dispensing 49 μl of substrate solution (50 mM HEPES, pH 7.4, 100 mM KCl, 5 mM NaCl, 2 mM MgCl2, 2 mM NADPH and 160 nM [^3H]cortisone (1 Ci/mmol)) and mixing in 1 μL of the test compounds in DMSO previously diluted in half-log increments (8 points) starting at 0.1 mM. After a 10 minute pre-incubation, 50 μL of enzyme solution containing microsomes isolated from CHO cells overexpressing human 11β-HSD1 (10-20 μg/ml of total protein) was added, and the plates were incubated for 90 minutes at rt. The reaction was stopped by adding 50 μl of the SPA beads suspension containing 10 μM 18β-glycyrrhetinic acid, 5 mg/ml protein A coated YSi SPA beads (GE Healthcare) and 3.3 μg/ml of anti-cortisol antibody (East Coast Biologics) in Superblock buffer (Bio-Rad). The plates were shaken for 120 minutes at rt, and the SPA signal corresponding to [^3H]cortisol was measured on a Microbeta plate reader.

T1 sequence (P28845 whole entry): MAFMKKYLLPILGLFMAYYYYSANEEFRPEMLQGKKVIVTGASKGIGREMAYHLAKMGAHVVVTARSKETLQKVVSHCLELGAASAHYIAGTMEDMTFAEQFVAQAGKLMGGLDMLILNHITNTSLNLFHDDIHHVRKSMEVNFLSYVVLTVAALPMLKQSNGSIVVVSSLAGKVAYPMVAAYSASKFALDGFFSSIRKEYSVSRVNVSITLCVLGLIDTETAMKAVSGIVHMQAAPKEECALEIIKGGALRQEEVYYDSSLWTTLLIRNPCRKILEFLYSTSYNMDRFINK

Compound	inhibition at 0.111 µM [%]	pIC50	inhibition at 0.1 µM [%]
O=C(/C=C/c1ccccc1C(F)(F)F)N1CCC2(CC1)CNCc1ccccc12 [EXAMPLE 21, (E)-1-(2,3-dihydro-1H-spiro[isoquinoline-4,4′-piperidine]-1′-yl)-3-(2-(trifluoromethyl)phenyl)prop-2-en-1-one]	87.4	> 7.00	–
CS(=O)(=O)N1Cc2ccccc2C2(CCN(C(=O)/C=C/c3ccccc3C(F)(F)F)CC2)C1 [EXAMPLE 22, (E)-1-(2-(methylsulfonyl)-2,3-dihydro-1H-spiro[isoquinoline-4,4′-piperidine]-1′-yl)-3-(2-(trifluoromethyl)phenyl)prop-2-en-1-one]	95.3	> 7.00	–
CN1C(=O)c2ccccc2C12CCN(C(=O)/C=C/c1ccccc1C(F)(F)F)CC2 [EXAMPLE 24, (E)-2-methyl-1′-(3-(2-(trifluoromethyl)phenyl)acryloyl)spiro[isoindoline-1,4′-piperidin]-3-one]	82.3	> 7.00	–
CN1C(=O)c2cccc(Cl)c2C12CCN(C(=O)/C=C/c1c(Cl)cccc1Cl)CC2 [EXAMPLE 26, (E)-7-chloro-1′-(3-(2,6-dichlorophenyl)acryloyl)-2-methylspiro[isoindoline-1,4′-piperidin]-3-one]	79	> 7.00	–
O=C1NC2(CCN(C(=O)/C=C/c3ccccc3C(F)(F)F)CC2)c2c(Cl)cccc21 [EXAMPLE 27, (E)-7-chloro-1′-(3-(2-(trifluoromethyl)phenyl)acryloyl)spiro[isoindoline-1,4′-piperidin]-3-one]	89.8	> 7.00	–
O=C1NC2(CCN(C(=O)/C=C/c3ccccc3C(F)(F)F)CC2)c2c(Cl)cc(Cl)cc21 [EXAMPLE 29, (E)-5,7-dichloro-1′-(3-(2-(trifluoromethyl)phenyl)acryloyl)spiro[isoindoline-1,4′-piperidin]-3-one]	94.2	> 7.00	–
CN1C(=O)C2(CCN(C(=O)/C=C/c3ccccc3C(F)(F)F)CC2)c2ccccc21 [EXAMPLE 31, (E)-1-methyl-1′-(3-(2-(trifluoromethyl)phenyl)acryloyl)spiro[indoline-3,4′-piperidin]-2-one]	–	> 7.00	99.9
CN(C)C(=O)c1ccc2c(c1)C1(CCN(C(=O)/C=C/c3ccccc3C(F)(F)F)CC1)C(=O)N2C [EXAMPLE 34, (E)-N,N,1-trimethyl-2-oxo-1′-(3-(2-(trifluoromethyl)phenyl)acryloyl)spiro[indoline-3,4′-piperidine]-5-carboxamide]	38.2	6.00 to 7.00	–
CN1CCN(C(=O)c2ccc3c(c2)C2(CCN(C(=O)/C=C/c4ccccc4C(F)(F)F)CC2)C(=O)N3C)CC1 [EXAMPLE 37, (E)-1-methyl-5-(4-methylpiperazine-1-carbonyl)-1′-(3-(2-(trifluoromethyl)phenyl)acryloyl)spiro[indoline-3,4′-piperidin]-2-one]	7.1	6.00 to 7.00	–
O=C(/C=C/c1ccccc1C(F)(F)F)N1CCC2(CC1)C(=O)Nc1ccc(F)cc12 [EXAMPLE 41, (E)-5-fluoro-1′-(3-(2-(trifluoromethyl)phenyl)acryloyl)spiro[indoline-3,4′-piperidin]-2-one]	–	> 7.00	91.2
O=C1Cc2ccccc2C2(CCN(C(=O)/C=C/c3ccccc3C(F)(F)F)CC2)N1 [EXAMPLE 42, (E)-1′-(3-(2-(trifluoromethyl)phenyl)acryloyl)-2H-spiro[isoquinoline-1,4′-piperidin]-3(4H)-one]	79.3	> 7.00	–
CC1(C)NC(=O)C2(CCN(C(=O)/C=C/c3ccccc3C(F)(F)F)CC2)c2ccccc21 [EXAMPLE 43, (E)-1,1-dimethyl-1′-(3-(2-(trifluoromethyl)phenyl)acryloyl)-1H-spiro[isoquinoline-4,4′-piperidin]-3(2H)-one]	–	> 7.00	90.6
O=C1NC2(CCN(C(=O)Cc3ccccc3C(F)(F)F)CC2)c2c(Cl)cccc21 [EXAMPLE 45, 7-chloro-1′-(2-(2-(trifluoromethyl)phenyl)acetyl)spiro[isoindoline-1,4′-piperidin]-3-one]	43.2	6.00 to 7.00	–
O=C(Cc1ccccc1C(F)(F)F)N1CCC2(CC1)C(=O)Nc1ccccc12 [EXAMPLE 47, 1′-(2-(2-(trifluoromethyl)phenyl)acetyl)spiro[indoline-3,4′-piperidin]-2-one]	83.3	> 7.00	–
CN1C(=O)C2(CCN(C(=O)Cc3ccccc3C(F)(F)F)CC2)c2ccccc21 [EXAMPLE 48, 1-methyl-1′-(2-(2-(trifluoromethyl)phenyl)acetyl)spiro[indoline-3,4′-piperidin]-2-one]	86.3	> 7.00	80.6
O=C1NC2(CCN(C(=O)Cc3ccccc3C(F)(F)F)CC2)c2c(Br)cccc21 [EXAMPLE 49, 7-bromo-1′-(2-(2-(trifluoromethyl)phenyl)acetyl)spiro[isoindoline-1,4′-piperidin]-3-one]	49.2	6.00 to 7.00	–

Results, then the compound that gave them:

inhibition at 0.111 µM [%]	pIC50	inhibition at 0.1 µM [%]	Compound
94.9	> 7.00	–	CC(=O)N1Cc2ccccc2C2(CCN(C(=O)/C=C/c3ccccc3C(F)(F)F)CC2)C1 [EXAMPLE 23, (E)-1-(2-acetyl-2,3-dihydro-1H-spiro[isoquinoline-4,4′-piperidine]-1′-yl)-3-(2-(trifluoromethyl)phenyl)prop-2-en-1-one]
95.3	> 7.00	95.5	CN1C(=O)c2cccc(Cl)c2C12CCN(C(=O)/C=C/c1ccccc1C(F)(F)F)CC2 [EXAMPLE 25, (E)-7-chloro-2-methyl-1′-(3-(2-(trifluoromethyl)phenyl)acryloyl)spiro[isoindoline-1,4′-piperidin]-3-one]
92.7	> 7.00	–	O=C1NC2(CCN(C(=O)/C=C/c3ccccc3C(F)(F)F)CC2)c2c(Br)cccc21 [EXAMPLE 28, (E)-7-bromo-1′-(3-(2-(trifluoromethyl)phenyl)acryloyl)spiro[isoindoline-1,4′-piperidin]-3-one]
94.6	> 7.00	90.3	COc1ccc2c(c1)CCNC21CCN(C(=O)/C=C/c2ccccc2C(F)(F)F)CC1 [EXAMPLE 30, (E)-1-(6-methoxy-3,4-dihydro-2H-spiro[isoquinoline-1,4′-piperidine]-1′-yl)-3-(2-(trifluoromethyl)phenyl)prop-2-en-1-one]
83.4	> 7.00	–	COC(=O)c1ccc2c(c1)C1(CCN(C(=O)/C=C/c3ccccc3C(F)(F)F)CC1)C(=O)N2C [EXAMPLE 32, (E)-methyl 1-methyl-2-oxo-1′-(3-(2-(trifluoromethyl)phenyl)acryloyl)spiro[indoline-3,4′-piperidine]-5-carboxylate]
31.5	6.00 to 7.00	–	CN1C(=O)C2(CCN(C(=O)/C=C/c3ccccc3C(F)(F)F)CC2)c2cc(C(=O)O)ccc21 [EXAMPLE 33, (E)-1-methyl-2-oxo-1′-(3-(2-(trifluoromethyl)phenyl)acryloyl)spiro[indoline-3,4′-piperidine]-5-carboxylic acid]
41.4	6.00 to 7.00	–	CN1C(=O)C2(CCN(C(=O)/C=C/c3ccccc3C(F)(F)F)CC2)c2cc(C(N)=O)ccc21 [EXAMPLE 35, (E)-1-methyl-2-oxo-1′-(3-(2-(trifluoromethyl)phenyl)acryloyl)spiro[indoline-3,4′-piperidine]-5-carboxamide]
0.6	6.00 to 7.00	–	CN1C(=O)C2(CCN(C(=O)/C=C/c3ccccc3C(F)(F)F)CC2)c2cc(C(=O)NCCO)ccc21 [EXAMPLE 36, (E)-N-(2-hydroxyethyl)-1-methyl-2-oxo-1′-(3-(2-(trifluoromethyl)phenyl)acryloyl)spiro[indoline-3,4′-piperidine]-5-carboxamide]
21.3	6.00 to 7.00	–	CNC(=O)c1ccc2c(c1)C1(CCN(C(=O)/C=C/c3ccccc3C(F)(F)F)CC1)C(=O)N2C [EXAMPLE 38, (E)-N,1-dimethyl-2-oxo-1′-(3-(2-(trifluoromethyl)phenyl)acryloyl)spiro[indoline-3,4′-piperidine]-5-carboxamide]
64.8	> 7.00	–	CN1C(=O)C2(CCN(C(=O)/C=C/c3ccccc3C(F)(F)F)CC2)c2cc(C#N)ccc21 [EXAMPLE 39, (E)-1-methyl-2-oxo-1′-(3-(2-(trifluoromethyl)phenyl)acryloyl)spiro[indoline-3,4′-piperidine]-5-carbonitrile]
71.2	> 7.00	–	CCN1C(=O)C2(CCN(C(=O)/C=C/c3ccccc3C(F)(F)F)CC2)c2cc(C(=O)OC)ccc21 [EXAMPLE 40, (E)-methyl 1-ethyl-2-oxo-1′-(3-(2-(trifluoromethyl)phenyl)acryloyl)spiro[indoline-3,4′-piperidine]-5-carboxylate]
69.9	> 7.00	–	COc1ccc2c(c1)CCNC21CCN(C(=O)Cc2ccccc2C(F)(F)F)CC1 [EXAMPLE 44, 1-(6-methoxy-3,4-dihydro-2H-spiro[isoquinoline-1,4′-piperidine]-1′-yl)-2-(2-(trifluoromethyl)phenyl)ethanone]
